This assay has as its system ZmCkx2. The assay is described as follows: ZmCkx2 expression in leaf discs incubated with benzyladenine (Northern and Lynx analyses). The format is cell-based, maize. As to conditions: leaf discs incubated with 10 μM benzyladenine. Here is the method:
Northern analysis of ZmCkx2 was performed using ExpressHyb™ Hybridization Solution from BD Biosciences Clontech (Palo Alto, Calif.) with a final wash in 0.1×SSC, 0.1% SDS at 65° C. for 20 minutes.
A tight relationship exists between Lynx and Northern data for ZmCkx2. This provided confidence when the Lynx database was mined for ZmCkx2 expression in various plant parts. […] Similarly, Northern data indicated strongest signals from ear leaf and midrib tissues; intermediate levels in tassel, husk leaves, young leaves, stalk, and pulvini; and lower levels in cob and ovary tissue. Little to no ZmCkx2 activity was detected by Northern analysis of roots or silks.

Each structure is given as a SMILES string.

For the compound `c1ccc(CNc2ncnc3nc[nH]c23)cc1` [benzyladenine], the “increase in ZmCkx2 expression” value was determined as 2 fold.

Values taken from patent publication US8222483B2, “Cytokinin oxidase sequences and methods of use” (Pioneer Hi Bred International Inc, priority 2004, dated 2012).
